# In paper PMC6104039 (Nature Communications, 2018):
# Where “and” joins values, the source holds several entries; their conditions need not be identical. Equal values may be shown once. Entries after “also recorded” stand apart in the source; their conditions may differ.
# Columns and labels:
# SkM homogenates = experiment: 14C-palmitate oxidation in SkM homogenates of treated mice; assay type: in vivo; conditions: chow and HFD-fed mice, 6 weeks
# Protocol: Tibialis muscles were homogenized in 19 volumes of 250 mM sucrose, 10 mM Tris-HCl and 1 mM EDTA, pH 7.4.
# [1] = molecular target: recombinant human sphingosine kinase 1 (Homo sapiens, UniProt Q9NYA1); conditions: 10 μM
# Protocol: Sphingosine kinase assays were performed using fluorescent NBD-dihydrosphingosine[63],[64]. […] Reactions were stopped with 100 μL methanol, and 5 μL amounts were resolved on Silica Gel 60 thin layer chromatography (TLC) plates using butanol:acetic acid:water (3:1:1). The fluorescent NBD-dihydrosphingosine 1-phosphate band was quantified using a BioRad ChemiDoc imaging system with excitation by UV light.
# Supplementary Figure 2. […] Activity of recombinant
# human sphingosine kinases 1 and 2 (SphK1 and 2) was assessed in the presence of 10 µM
# Activity is expressed as a percentage of the vehicle control.
# adipose tissue = experiment: Ceramide and SM species in epididymal adipose tissue; assay type: in vivo, mice; conditions: Chow + P053, individual values
# Protocol: Male C57BL6/J mice were obtained from the Animal Resources Centre in Perth (WA, Australia). Mice were housed at 22 ± 1 °C with a controlled 12:12 h light-dark cycle and had ad libitum access to water and either chow (8% calories from fat) or HFD (45% calories from fat)[66] for 4–6 weeks. […] Treatment was commenced at the same time as mice were randomised to dietary groups. The experiments were approved by the UNSW animal care and ethics committee (ACEC 15/48B), and followed guidelines issued by the National Health and Medical Research Council of Australia.
# Lipids were extracted from frozen tissue samples or cells using a two-phase procedure with methyl-tert-butyl ether (MTBE)/methanol/water (10:3:2.5, v/v/v)[67]. Frozen tissue samples (~20 mg) were homogenized in 0.2 mL methanol containing 0.01% butylated hydroxytoluene (BHT), using a Precellys 24 homogenizer and Cryolys cooling unit (Bertin Technologies) with CK14 (1.4-mm ceramic) beads. The homogenates were spiked with an internal standard mixture comprising 5 nmole 19:0/19:0 phosphatidylcholine and 2 nmole each of 17:0/17:0 phosphatidylethanolamine, 17:0/17:0 phosphatidylserine, 17:0/17:0 d5-diacylglycerol, 17:0/17:0 phosphatidylglycerol, 14:0/14:0/14:0/14:0 cardiolipin, 18:1/12:0 SM, 18:1/17:0 ceramide, 18:1/12:0 glucosylceramide, 18:1/12:0 lactosylceramide, 18:1/12:0 sulfatide (all from Avanti Polar Lipids, USA), and 17:0/17:0/17:0 TAG (Cayman Chemical, USA), then transferred to 10 mL screw cap glass tubes. The homogenization tubes containing beads were then washed with another 0.3 mL methanol, and this wash was combined with the first methanol extract, after which 1.7 mL MTBE was added and the samples were sonicated in an ice-cold sonicating water bath (Thermoline Scientific, Australia) for 30 min. Phase separation was induced by addition of 417 µL of mass spectrometry-grade water followed by vortexing and centrifugation at 1000 × g for 10 min. The upper organic phase was collected into 5 mL glass tubes. The lower phase was re-extracted by adding 1 mL MTBE, 300 μL methanol, and 250 μL water. The organic phases were combined in the 5 mL glass tubes and dried under vacuum in a Savant SC210 SpeedVac (Thermo Scientific), then reconstituted in 500 μL methanol and stored at −20 °C until analysis.
# Lipidomic profiling was performed on a QExactive Plus mass spectrometer with heated electrospray ionization (HESI) probe and a Dionex UltiMate 2000 LC pump (Thermo Fisher Scientific). Extracts were resolved on a 2.1 × 100 mm Waters Acquity C18 UPLC column (1.7 µm […]), using a binary gradient in which mobile phase A consisted of acetonitrile:water (60:40), 10 mM ammonium formate, 0.1% formic acid; and mobile phase B was isopropanol:acetonitrile (90:10), 10 mM ammonium formate, 0.1% formic acid[68]. The flow rate was 260 µL/min and column oven 55 °C. Data was acquired in full scan/data-dependent MS^2 mode (full scan resolution 70,000 FWHM, scan range 400–1200 m/z). The ten most abundant ions in each cycle were subjected to MS^2 using an isolation window of 1.4 m/z, collision energy 30 eV, resolution 17,500, maximum integration time 110 ms and dynamic exclusion window 10 s. An exclusion list of background ions was used based on a solvent blank. LipidSearch v4.1.30 software (ThermoFisher Scientific) was used for chromatogram alignment, peak identification and integration. Each lipid peak was manually verified for column elution time and characteristic fragment ions. Data were then exported to an Excel spreadsheet for normalisation of each lipid to its class-specific internal standard, and lipid concentrations were calculated relative to the internal standard.
# Chain of recombinant human sphingosine kinase 1 (Q9NYA1 whole entry): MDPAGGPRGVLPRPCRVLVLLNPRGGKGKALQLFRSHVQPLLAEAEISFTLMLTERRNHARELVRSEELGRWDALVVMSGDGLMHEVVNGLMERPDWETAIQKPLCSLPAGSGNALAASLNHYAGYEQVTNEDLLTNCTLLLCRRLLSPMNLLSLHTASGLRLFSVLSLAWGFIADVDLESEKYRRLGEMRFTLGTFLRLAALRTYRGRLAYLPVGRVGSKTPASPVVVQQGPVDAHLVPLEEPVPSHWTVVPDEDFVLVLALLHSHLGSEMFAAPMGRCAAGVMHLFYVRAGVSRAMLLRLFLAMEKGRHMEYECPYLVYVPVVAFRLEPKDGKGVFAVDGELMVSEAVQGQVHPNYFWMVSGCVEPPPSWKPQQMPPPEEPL
smiles,measurement,setting,value
"C[C@@](N)(CO)CCc1ccc(OCc2ccc(Cl)c(Cl)c2)cc1 [P053, (S)-2-amino-4-(4-(3,4-dichlorobenzyloxy)phenyl)-2-methylbutan-1-ol]",oxidation of 14C-palmitate in muscle homogenates,SkM homogenates,increased oxidation
same,reduction in sphingosine kinase 1 activity,[1],did not inhibit; also recorded: does not inhibit; also recorded: no inhibitory activity
same,Ceramide 18:1/16:0 content of white adipose tissue,adipose tissue; raw data Fig 3l,10.929 and 4.227 and 17.193 and 8.156 and 14.726 and 6.210 and 17.172 and 6.636 and 12.272 and 15.061
same,Ceramide 18:1/18:0 content of white adipose tissue,adipose tissue; raw data Fig 3l,2.114 and 0.846 and 3.339 and 1.520 and 2.375 and 1.130 and 3.918 and 1.468 and 2.718 and 2.056
same,Ceramide 18:1/20:0 content of white adipose tissue,adipose tissue; raw data Fig 3l,1.814 and 0.867 and 3.626 and 1.453 and 2.395 and 1.178 and 2.617 and 1.217 and 2.593 and 1.998
same,Ceramide 18:1/22:0 content of white adipose tissue,adipose tissue; raw data Fig 3l,4.127 and 2.201 and 7.564 and 3.535 and 5.536 and 3.049 and 7.800 and 3.557 and 5.828 and 4.572
same,Ceramide 18:1/24:0 content of white adipose tissue,adipose tissue; raw data Fig 3l,6.125 and 3.020 and 12.234 and 6.320 and 9.940 and 4.064 and 14.430 and 5.790 and 10.017 and 7.844
same,Ceramide 18:1/24:1 content of white adipose tissue,adipose tissue; raw data Fig 3l,10.504 and 6.110 and 22.417 and 11.780 and 19.731 and 7.603 and 26.592 and 10.551 and 18.107 and 16.532
same,Ceramide 18:2/18:0 content of white adipose tissue,adipose tissue; raw data Fig 3l,1.183 and 0.312 and 1.256 and 0.618 and 1.358 and 0.382 and 1.268 and 0.527 and 0.931 and 1.219
same,Ceramide 18:2/22:0 content of white adipose tissue,adipose tissue; raw data Fig 3l,2.177 and 0.918 and 3.608 and 1.721 and 2.577 and 1.375 and 2.989 and 1.482 and 2.309 and 2.564
same,Ceramide 18:2/24:0 content of white adipose tissue,adipose tissue; raw data Fig 3l,4.508 and 1.750 and 7.166 and 3.688 and 5.287 and 2.715 and 7.269 and 3.296 and 4.451 and 6.052
same,Ceramide 18:2/24:1 content of white adipose tissue,adipose tissue; raw data Fig 3l,4.820 and 2.648 and 9.228 and 4.871 and 7.660 and 3.147 and 9.518 and 3.932 and 5.805 and 6.812
same,SM 34:1 content of white adipose tissue,adipose tissue; raw data Fig 3m,276.61 and 66.44 and 226.46 and 212.93 and 276.78 and 111.51 and 327.37 and 118.77 and 188.15 and 267.47
same,SM 34:2 content of white adipose tissue,adipose tissue; raw data Fig 3m,23.85 and 2.33 and 6.66 and 4.19 and 4.83 and 3.15 and 5.28 and 2.34 and 3.58 and 6.77
same,SM 36:1 content of white adipose tissue,adipose tissue; raw data Fig 3m,33.66 and 9.97 and 25.23 and 24.39 and 28.26 and 12.44 and 31.61 and 15.13 and 21.89 and 30.09
same,SM 36:2 content of white adipose tissue,adipose tissue; raw data Fig 3m,12.60 and 1.84 and 8.68 and 8.41 and 12.18 and 3.45 and 12.76 and 4.74 and 5.44 and 12.73
same,SM 38:1 content of white adipose tissue,adipose tissue; raw data Fig 3m,22.37 and 7.77 and 26.08 and 17.58 and 21.03 and 10.59 and 19.70 and 11.77 and 20.28 and 19.73
same,SM 38:2 content of white adipose tissue,adipose tissue; raw data Fig 3m,5.83 and 1.41 and 5.52 and 4.51 and 5.60 and 2.81 and 4.44 and 2.01 and 3.84 and 6.42
same,SM 40:1 content of white adipose tissue,adipose tissue; raw data Fig 3m,44.87 and 18.02 and 56.10 and 41.83 and 53.17 and 20.49 and 52.33 and 23.88 and 40.81 and 43.57
same,SM 40:2 content of white adipose tissue,adipose tissue; raw data Fig 3m,12.98 and 4.14 and 11.80 and 8.16 and 10.55 and 6.16 and 10.26 and 5.10 and 7.07 and 11.44
same,SM 42:1 content of white adipose tissue,adipose tissue; raw data Fig 3m,28.12 and 11.04 and 39.22 and 23.51 and 29.01 and 11.65 and 31.95 and 14.81 and 26.21 and 27.56
same,SM 42:2 content of white adipose tissue,adipose tissue; raw data Fig 3m,81.27 and 33.26 and 95.54 and 83.35 and 95.85 and 36.01 and 109.30 and 44.61 and 71.06 and 85.15
same,SM 42:3 content of white adipose tissue,adipose tissue; raw data Fig 3m,22.64 and 7.14 and 18.55 and 16.77 and 22.11 and 8.66 and 22.41 and 8.50 and 11.09 and 21.29
